Measured values: ChEMBL document CHEMBL1201862, “PubChem BioAssay data set” (2004)
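Compound exposure: 48 hours, 5 concentrations, 96-well plates. GI50 = concentration required for 50% inhibition of growth.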 Calls of active or inactive are those of the source. Rule as the data show it: active = GI50 up to about 1.1 µM and inactive = higher.

Legend:
Assay in all cases: NCI tumour cell line growth inhibition, 48 h
OVCAR-5 = test system: OVCAR-5
PC-3 = test system: PC-3
Malme-3M = test system: Malme-3M
SF-268 = test system: SF-268
COLO 205 = test system: COLO 205
NCI-H226 = test system: NCI-H226
NCI-H23 = test system: NCI-H23
SF-295 = test system: SF-295
NCI-H460 = test system: NCI-H460
SR = test system: SR
UACC-257 = test system: UACC-257
BT-549 = test system: BT-549
HCC 2998 = test system: HCC 2998
SK-OV-3 = test system: SK-OV-3
IGROV-1 = test system: IGROV-1
A549 = test system: A549
MCF7 = test system: MCF7
T47D = test system: T47D
NCI/ADR-RES = test system: NCI/ADR-RES
HL-60 = test system: HL-60
HT-29 = test system: HT-29
DU-145 = test system: DU-145
HCT-116 = test system: HCT-116
OVCAR-3 = test system: OVCAR-3
K562 = test system: K562
SW-620 = test system: SW-620
TK-10 = test system: TK-10
CCRF-CEM = test system: CCRF-CEM
SF-539 = test system: SF-539
CAKI-1 = test system: CAKI-1
KM12 = test system: KM12
UO-31 = test system: UO-31
HCT-15 = test system: HCT-15
MDA-MB-231 = test system: MDA-MB-231
SN12C = test system: SN12C
OVCAR-8 = test system: OVCAR-8
OVCAR-4 = test system: OVCAR-4
NCI-H522 = test system: NCI-H522
Hs-578T = test system: Hs-578T
SK-MEL-5 = test system: SK-MEL-5
LOX IMVI = test system: LOX IMVI
ACHN = test system: ACHN
HOP-62 = test system: HOP-62
EKVX = test system: EKVX
MDA-MB-435 = test system: MDA-MB-435
SK-MEL-2 = test system: SK-MEL-2
U-251 = test system: U-251
HOP-92 = test system: HOP-92
A498 = test system: A498
M14 = test system: M14
786-0 = test system: 786-0
RPMI-8226 = test system: RPMI-8226
UACC-62 = test system: UACC-62
SNB-75 = test system: SNB-75
RXF 393 = test system: RXF 393
MOLT-4 = test system: MOLT-4
SK-MEL-28 = test system: SK-MEL-28
SNB-19 = test system: SNB-19

`CCOC(=O)c1c(N2CCOCC2)[nH]c(=O)c(C(c2c(Cl)cccc2Cl)c2c(O)c(C(=O)OCC)c(N3CCOCC3)[nH]c2=O)c1O` was tested, and the GI50 (OVCAR-5) was 14.4 µM (inactive), the GI50 (PC-3) was 15.5 µM (inactive) and the GI50 (Malme-3M) was 2.49 µM (inactive). For the same compound, the GI50 (SF-268) was 8.22 µM (inactive), the GI50 (COLO 205) was 4.34 µM (inactive) and the GI50 (NCI-H226) was 13.8 µM (inactive). For the same compound, the GI50 (NCI-H23) was 7.19 µM (inactive), the GI50 (SF-295) was 16 µM (inactive) and the GI50 (NCI-H460) was 21.4 µM (inactive). For the same compound, the GI50 (SR) was 3.97 µM (inactive), the GI50 (UACC-257) was 5.58 µM (inactive) and the GI50 (BT-549) was 7.76 µM (inactive). For the same compound, the GI50 (HCC 2998) was 19.4 µM (inactive), the GI50 (SK-OV-3) was 11.2 µM (inactive) and the GI50 (IGROV-1) was 4.09 µM (inactive). The GI50 (A549) was 18.2 µM (inactive), the GI50 (MCF7) was 2.47 µM (inactive) and the GI50 (T47D) was 4.01 µM (inactive). For the same compound, the GI50 (NCI/ADR-RES) was 18 µM (inactive), the GI50 (HL-60) was 1.96 µM (inactive) and the GI50 (HT-29) was 3.56 µM (inactive). For the same compound, the GI50 (DU-145) was 12.2 µM (inactive), the GI50 (HCT-116) was 4.39 µM (inactive) and the GI50 (OVCAR-3) was 3.48 µM (inactive). The GI50 (K562) was 2.3 µM (inactive), the GI50 (SW-620) was 1.7 µM (inactive) and the GI50 (TK-10) was 4.66 µM (inactive). The GI50 (CCRF-CEM) was 1.64 µM (inactive), the GI50 (SF-539) was 5.11 µM (inactive) and the GI50 (CAKI-1) was 2.31 µM (inactive). For the same compound, the GI50 (KM12) was 16.9 µM (inactive), the GI50 (UO-31) was 2.47 µM (inactive) and the GI50 (HCT-15) was 4.63 µM. The GI50 (MDA-MB-231) was 12.3 µM (inactive), the GI50 (SN12C) was 4.92 µM (inactive) and the GI50 (OVCAR-8) was 8.17 µM (inactive). The GI50 (OVCAR-4) was 9.84 µM (inactive), the GI50 (NCI-H522) was 1.83 µM (inactive) and the GI50 (Hs-578T) was 4.86 µM (inactive). For the same compound, the GI50 (SK-MEL-5) was 4.55 µM (inactive), the GI50 (LOX IMVI) was 2.91 µM (inactive) and the GI50 (ACHN) was 4.54 µM (inactive). The GI50 (HOP-62) was 16.1 µM (inactive), the GI50 (EKVX) was 18.9 µM (inactive) and the GI50 (MDA-MB-435) was 3.48 µM (inactive). For the same compound, the GI50 (SK-MEL-2) was 4.74 µM (inactive), the GI50 (U-251) was 4.8 µM (inactive) and the GI50 (HOP-92) was 2.09 µM (inactive). For the same compound, the GI50 (A498) was 8.71 µM (inactive), the GI50 (M14) was 2.4 µM (inactive) and the GI50 (786-0) was 2.67 µM (inactive). The GI50 (RPMI-8226) was 2.18 µM (inactive), the GI50 (UACC-62) was 6.9 µM (inactive) and the GI50 (SNB-75) was 6.7 µM (inactive). The GI50 (RXF 393) was 2.19 µM (inactive), the GI50 (MOLT-4) was 2.07 µM (inactive) and the GI50 (SK-MEL-28) was 1.93 µM (inactive). For the same compound, the GI50 (SNB-19) was 7.45 µM (inactive).
In the case of `CC1CC(C)(C)CC(OCCN2CCCCC2)(c2ccccc2)C1` (centres undefined), the GI50 (OVCAR-5) is reported as 4.19 µM (inactive), the GI50 (PC-3) is reported as 12.2 µM (inactive) and the GI50 (Malme-3M) is reported as 10.4 µM (inactive). The GI50 (SF-268) was 10.8 µM (inactive), the GI50 (COLO 205) was 7.71 µM (inactive) and the GI50 (NCI-H226) was 20.7 µM (inactive). For the same compound, the GI50 (NCI-H23) was 10.3 µM (inactive), the GI50 (SF-295) was 10.7 µM (inactive) and the GI50 (NCI-H460) was 4.21 µM (inactive). For the same compound, the GI50 (SR) was 4.97 µM (inactive), the GI50 (UACC-257) was 11.6 µM (inactive) and the GI50 (BT-549) was 12.7 µM (inactive). For the same compound, the GI50 (SK-OV-3) was 14.7 µM (inactive), the GI50 (IGROV-1) was 13.2 µM (inactive) and the GI50 (A549) was 11 µM (inactive). The GI50 (MCF7) was 11.2 µM (inactive), the GI50 (T47D) was 12.9 µM (inactive) and the GI50 (NCI/ADR-RES) was 14.4 µM (inactive). For the same compound, the GI50 (HL-60) was 11.4 µM (inactive), the GI50 (HT-29) was 1.89 µM (inactive) and the GI50 (DU-145) was 6.61 µM (inactive). For the same compound, the GI50 (HCT-116) was 4.4 µM (inactive), the GI50 (OVCAR-3) was 10.4 µM (inactive) and the GI50 (K562) was 13 µM (inactive). The GI50 (SW-620) was 13.9 µM (inactive), the GI50 (TK-10) was 13.3 µM (inactive) and the GI50 (CCRF-CEM) was 6.5 µM (inactive). The GI50 (SF-539) was 15.6 µM (inactive), the GI50 (CAKI-1) was 12.7 µM (inactive) and the GI50 (KM12) was 7.35 µM (inactive). For the same compound, the GI50 (UO-31) was 7.16 µM (inactive), the GI50 (HCT-15) was 10.2 µM and the GI50 (MDA-MB-231) was 11.4 µM (inactive). For the same compound, the GI50 (SN12C) was 12 µM (inactive), the GI50 (OVCAR-8) was 15.2 µM (inactive) and the GI50 (OVCAR-4) was 11.3 µM (inactive). The GI50 (NCI-H522) was 5.87 µM (inactive), the GI50 (Hs-578T) was 13.3 µM (inactive) and the GI50 (SK-MEL-5) was 10 µM (inactive). The GI50 (LOX IMVI) was 7.13 µM (inactive), the GI50 (ACHN) was 15.9 µM (inactive) and the GI50 (HOP-62) was 13.2 µM (inactive). The GI50 (EKVX) was 5.51 µM (inactive), the GI50 (MDA-MB-435) was 11.9 µM (inactive) and the GI50 (SK-MEL-2) was 17.8 µM (inactive). The GI50 (U-251) was 11.6 µM (inactive), the GI50 (HOP-92) was 8.17 µM (inactive) and the GI50 (A498) was 12.8 µM (inactive). The GI50 (M14) was 3.21 µM (inactive), the GI50 (786-0) was 10.1 µM (inactive) and the GI50 (RPMI-8226) was 4.51 µM (inactive). The GI50 (UACC-62) was 15.6 µM (inactive), the GI50 (SNB-75) was 15.1 µM (inactive) and the GI50 (RXF 393) was 10.9 µM (inactive). The GI50 (SK-MEL-28) was 15.7 µM (inactive) and the GI50 (SNB-19) was 12.9 µM (inactive).
`Oc1ccc(CCc2cc(O)cc(O)c2)cc1` [DIHYDRORESVERATROL] was tested, and the GI50 (OVCAR-5) was > 100 µM (inactive), the GI50 (PC-3) was > 100 µM (inactive) and the GI50 (Malme-3M) was > 100 µM (inactive). The GI50 (SF-268) was > 100 µM (inactive), the GI50 (COLO 205) was > 100 µM (inactive) and the GI50 (NCI-H226) was 53.5 µM (inactive). The GI50 (NCI-H23) was > 100 µM (inactive), the GI50 (SF-295) was > 100 µM (inactive) and the GI50 (NCI-H460) was > 100 µM (inactive). The GI50 (SR) was > 100 µM (inactive), the GI50 (UACC-257) was > 100 µM (inactive) and the GI50 (BT-549) was > 100 µM (inactive). For the same compound, the GI50 (SK-OV-3) was > 100 µM (inactive), the GI50 (IGROV-1) was > 100 µM (inactive) and the GI50 (A549) was > 100 µM (inactive). The GI50 (MCF7) was > 100 µM (inactive), the GI50 (T47D) was > 100 µM (inactive) and the GI50 (NCI/ADR-RES) was > 100 µM (inactive). The GI50 (HL-60) was 50.4 µM (inactive), the GI50 (HT-29) was > 100 µM (inactive) and the GI50 (DU-145) was > 100 µM (inactive). For the same compound, the GI50 (HCT-116) was > 100 µM (inactive), the GI50 (OVCAR-3) was > 100 µM (inactive) and the GI50 (K562) was 80.7 µM (inactive). For the same compound, the GI50 (SW-620) was > 100 µM (inactive), the GI50 (TK-10) was > 100 µM (inactive) and the GI50 (SF-539) was > 100 µM (inactive). The GI50 (CAKI-1) was > 100 µM (inactive), the GI50 (KM12) was > 100 µM (inactive) and the GI50 (UO-31) was > 100 µM (inactive). For the same compound, the GI50 (HCT-15) was 22.7 µM, the GI50 (MDA-MB-231) was 23.7 µM (inactive) and the GI50 (SN12C) was 72.3 µM (inactive). The GI50 (OVCAR-8) was > 100 µM (inactive), the GI50 (OVCAR-4) was > 100 µM (inactive) and the GI50 (NCI-H522) was > 100 µM (inactive). The GI50 (Hs-578T) was > 100 µM (inactive), the GI50 (SK-MEL-5) was > 100 µM (inactive) and the GI50 (ACHN) was 79.4 µM (inactive). For the same compound, the GI50 (HOP-62) was > 100 µM (inactive), the GI50 (EKVX) was 50.5 µM (inactive) and the GI50 (MDA-MB-435) was > 100 µM (inactive). For the same compound, the GI50 (SK-MEL-2) was > 100 µM (inactive), the GI50 (U-251) was > 100 µM (inactive) and the GI50 (HOP-92) was > 100 µM (inactive). For the same compound, the GI50 (A498) was > 100 µM (inactive), the GI50 (M14) was > 100 µM (inactive) and the GI50 (786-0) was > 100 µM (inactive). For the same compound, the GI50 (RPMI-8226) was 23.4 µM (inactive), the GI50 (UACC-62) was 47.1 µM (inactive) and the GI50 (SNB-75) was > 100 µM (inactive). The GI50 (RXF 393) was > 100 µM (inactive), the GI50 (MOLT-4) was 90.2 µM (inactive) and the GI50 (SK-MEL-28) was > 100 µM (inactive). For the same compound, the GI50 (SNB-19) was > 100 µM (inactive).
